Here are results for ten compounds from patent publication EP4810500A1, “IMIDAZOL-2-ONE DERIVATIVE AND USE THEREOF IN MEDICINE” (Haisco Pharmaceutical Group Co., Ltd., priority 2023, dated 2025).

Data set [1] in a line: Mouse pharmacokinetic assay. Type of data set: in vivo, male C57 mice. The following applies: plasma, mice; for bioavailability: intragastric administration 10 mg/kg (intravenous 2.5 mg/kg); for AUC(0-t): intragastric administration 10 mg/kg. How it is done:
Experimental animals: male C57 mice, 22-25 g, 6 mice/compound.
Experimental design: on the day of the experiment, C57 mice were randomly grouped according to body weight. The animals were fasted with water available for 12 h to 14 h one day before the administration, and were fed 4 h after the administration. Table 2. Administration information
Before and after the administration, 0.06 mL of blood was taken from the orbits under isoflurane anaesthesia and placed in an EDTAK2 centrifuge tube. The blood was centrifuged at 5000 rpm at 4°C for 10 min, and the plasma was collected. The blood collection time points for the intravenous administration group and intragastric administration group were 0, 5 min, 15 min, 30 min, 1 h, 2 h, 4 h, 7 h and 24 h. Before analysis and detection, all samples were stored at -80°C, and the samples were quantitatively analysed by LC-MS/MS. Table 2-1 Pharmacokinetic results of test compounds in mice

Data set [2] deals with T1, GLP-1R (Homo sapiens, UniProt P43220). In words: In vitro activity assay (cAMP HTRF, HEK293-CRE-luc-GLP-1R cells). Type of data set: cell-based. The arrangement: expressed in transfected cells; host or cells: HEK293 (HEK293-CRE-luc-GLP-1R). The following applies: cAMP HTRF 665 nm/620 nm, 1 h incubation. The procedure:
HEK293-CRE-luc-GLP-1R cells were seeded into a 384-well cell culture plate (Greiner #781946) at a certain cell density (5 µL/well). 5 µl/well of 2× working solution was added to the 384-well microplate. The microplate was sealed with parafilm and incubated in a 37°C 5% CO2 incubator (Thermo) for 1 h. Subsequently, the detection was performed using the cAMP-GS HIRANGE KIT (PerkinElmer, 62AM6PEB), and detection reagents were prepared according to the kit instruction manual. After the incubation, the detection reagents were added to the 384-well microplate, and the microplate was incubated for 1 h at room temperature in the dark. HTRF signals at 665 nm and 620 nm were then measured using a multimode microplate reader. Data were exported from the microplate reader in Excel format. GraphPad Prism was opened. The logarithm of the sample concentration was calculated. Using the logarithm of concentration as the x-axis and the 665 nm/620 nm ratio as the y-axis, four-parameter logistic fitting was performed to obtain the EC50 value of the curve. Table 1: EC50 of compounds against GLP-1

Data set [3] in a line: Monkey pharmacokinetic assay. Type of data set: in vivo, male cynomolgus monkeys. The following applies: cynomolgus monkey, monkeys; for bioavailability: intragastric administration 5 mg/kg (intravenous 1 mg/kg); for AUC(0-t): intragastric administration 5 mg/kg. The procedure: Experimental animals: male cynomolgus monkeys, 3-5 kg, 3-6 years old, 5 monkeys/compound, purchased from Hainan New Source Biotechnology Co., Ltd.
Experimental method: On the day of the experiment, five monkeys were randomly grouped according to body weight, with two in the intravenous administration group and three in the intragastric administration group. The animals were fasted with water available for 14 h to 18 h one day before the administration, and were fed 4 h after the administration. Table 3. Administration information

A further data set has as its target T2, CYP1A2 (Homo sapiens, UniProt P05177).
T2 construct: from tissue; host or cells: human liver microsomes
T2 sequence (P05177 1-516): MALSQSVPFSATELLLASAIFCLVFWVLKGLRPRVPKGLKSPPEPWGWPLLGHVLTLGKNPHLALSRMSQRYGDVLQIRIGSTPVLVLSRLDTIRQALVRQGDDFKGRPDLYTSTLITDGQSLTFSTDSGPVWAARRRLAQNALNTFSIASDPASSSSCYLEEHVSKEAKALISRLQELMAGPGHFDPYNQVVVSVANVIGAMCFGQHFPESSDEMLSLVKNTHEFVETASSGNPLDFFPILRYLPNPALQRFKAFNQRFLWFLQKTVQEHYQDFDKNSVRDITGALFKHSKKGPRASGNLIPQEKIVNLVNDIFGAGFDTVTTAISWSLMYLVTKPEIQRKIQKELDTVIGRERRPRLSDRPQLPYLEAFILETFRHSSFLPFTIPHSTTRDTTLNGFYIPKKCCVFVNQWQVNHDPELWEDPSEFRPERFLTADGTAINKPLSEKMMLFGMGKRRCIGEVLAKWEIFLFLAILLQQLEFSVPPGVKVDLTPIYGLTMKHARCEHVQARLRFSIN
In words: CYP450 enzyme activity inhibition assay (human liver microsomes). Type of data set: in vitro ADME. How it is done: (§1) The purpose of this study was to evaluate the effects of the test compounds on the activities of five isoenzymes (CYP1A2, CYP2C9, CYP2C19, CYP2D6, and CYP3A4) of human liver microsomal cytochrome P450 (CYP) using an in vitro testing system. The specific probe substrates of CYP450 isoenzymes were incubated with human liver microsomes and test compounds of different concentrations, and reduced nicotinamide adenine dinucleotide phosphate (NADPH) was added to initiate the reaction. After the completion of the reaction, the sample was treated and liquid chromatography-tandem mass spectrometry (LC-MS/MS) was used to quantitatively detect metabolites produced by specific substrates. Changes in CYP enzyme activity were determined, and IC50 value was calculated to evaluate the inhibitory potential of the test compound on each CYP enzyme subtype.

In a further data set the target is T3, CYP2C19 (Homo sapiens, UniProt P33261).
T3 construct: from tissue; host or cells: human liver microsomes
The data set is described as above. Type of data set: in vitro ADME. How it is done: as §1

For another data set, the target named is T4, CYP2C9 (Homo sapiens, UniProt P11712).
T4 construct: from tissue; host or cells: human liver microsomes
Described as above. Type of data set: in vitro ADME. The procedure:
as §1

A further data set addresses T5, CYP2D6 (Homo sapiens, UniProt P10635).
T5 construct: from tissue; host or cells: human liver microsomes
The data set is described as above. Type of data set: in vitro ADME. The procedure: as §1

The target in the next data set is T6, CYP3A4 (Homo sapiens, UniProt P08684).
T6 construct: from tissue; host or cells: human liver microsomes
The data set is described as above. Type of data set: in vitro ADME. The procedure: as §1

Data set [4] deals with T1, GLP-1R. The experiment in a line: Oral glucose tolerance test (OGTT). Type of data set: in vivo, male C57BL/6-G1p1rem2 (hGLP1R) Smoc mice. Further details: from tissue; host or cells: whole animal: male C57BL/6-Glp1r em2(hGLP1R) Smoc knock-in mice. Conditions: 3 mg/kg, orally administered; from blood glucose AUC0-2 h after glucose load. The procedure: OGTT experiment was performed in male C57BL/6-G1p1rem2 (hGLP1R) Smoc mice to evaluate the hypoglycaemic effect of GLP-1 receptor agonists. The animals were fasted for more than 16 hours and randomly grouped. Tail tip blood was collected and basal fasting blood glucose (FBG) was measured using a blood glucose meter. Mice with FBG in the range of 3.5-6.5 mmol/L were selected and orally administered, and the control group was administered the vehicle. 15 min after administration, each group of animals was intragastrically administered with 25% glucose solution. Blood glucose levels were measured in tail tip blood collected 15 min, 30 min, 45 min, 1 h, and 2 h after glucose administration. 0-2 h blood glucose AUC0-2 h was calculated using the Graphpad Prism software, and the inhibition rate was further calculated. [formula]

Molecules are shown by their SMILES. Like-named read-outs stand apart in the source and are kept apart here.

T4 sequence (P11712 whole entry): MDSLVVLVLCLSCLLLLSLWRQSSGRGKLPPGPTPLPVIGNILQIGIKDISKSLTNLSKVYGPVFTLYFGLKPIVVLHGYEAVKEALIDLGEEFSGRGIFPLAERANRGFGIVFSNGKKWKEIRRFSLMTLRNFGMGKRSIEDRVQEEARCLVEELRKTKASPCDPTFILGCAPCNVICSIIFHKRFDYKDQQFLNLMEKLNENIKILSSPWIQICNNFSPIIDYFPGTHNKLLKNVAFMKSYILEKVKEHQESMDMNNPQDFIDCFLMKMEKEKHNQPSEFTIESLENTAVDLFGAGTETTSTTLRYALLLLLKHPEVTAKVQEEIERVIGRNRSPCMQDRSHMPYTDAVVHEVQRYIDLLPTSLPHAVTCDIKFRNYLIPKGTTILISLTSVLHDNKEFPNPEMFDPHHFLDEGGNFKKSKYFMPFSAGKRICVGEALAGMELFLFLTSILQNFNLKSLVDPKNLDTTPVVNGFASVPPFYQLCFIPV
T6 sequence (P08684 whole entry): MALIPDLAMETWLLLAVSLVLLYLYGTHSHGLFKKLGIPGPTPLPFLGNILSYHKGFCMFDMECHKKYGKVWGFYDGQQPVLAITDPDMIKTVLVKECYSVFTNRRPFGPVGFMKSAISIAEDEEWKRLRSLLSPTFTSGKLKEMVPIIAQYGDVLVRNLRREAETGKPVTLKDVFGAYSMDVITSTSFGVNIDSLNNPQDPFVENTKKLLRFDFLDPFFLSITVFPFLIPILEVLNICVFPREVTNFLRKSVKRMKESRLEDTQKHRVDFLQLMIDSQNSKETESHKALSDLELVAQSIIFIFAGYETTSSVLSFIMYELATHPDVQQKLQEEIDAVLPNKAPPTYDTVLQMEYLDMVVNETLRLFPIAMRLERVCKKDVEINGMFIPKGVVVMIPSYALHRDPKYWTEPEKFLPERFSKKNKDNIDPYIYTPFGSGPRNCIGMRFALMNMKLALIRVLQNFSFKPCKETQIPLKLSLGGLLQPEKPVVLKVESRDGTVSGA
T1 sequence (P43220 24-463): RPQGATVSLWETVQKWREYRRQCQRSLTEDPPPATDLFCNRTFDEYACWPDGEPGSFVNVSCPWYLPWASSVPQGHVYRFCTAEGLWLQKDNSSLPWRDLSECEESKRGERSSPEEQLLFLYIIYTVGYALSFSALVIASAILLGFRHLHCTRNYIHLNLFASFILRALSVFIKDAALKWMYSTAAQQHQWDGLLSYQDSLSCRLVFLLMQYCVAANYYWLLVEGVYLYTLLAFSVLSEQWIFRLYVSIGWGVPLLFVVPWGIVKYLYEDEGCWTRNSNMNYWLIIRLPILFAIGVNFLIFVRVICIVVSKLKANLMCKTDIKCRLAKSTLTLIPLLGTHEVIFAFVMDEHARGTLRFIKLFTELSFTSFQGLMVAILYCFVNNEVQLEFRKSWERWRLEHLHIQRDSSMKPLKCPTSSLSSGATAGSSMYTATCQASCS
T3 sequence (P33261 whole entry): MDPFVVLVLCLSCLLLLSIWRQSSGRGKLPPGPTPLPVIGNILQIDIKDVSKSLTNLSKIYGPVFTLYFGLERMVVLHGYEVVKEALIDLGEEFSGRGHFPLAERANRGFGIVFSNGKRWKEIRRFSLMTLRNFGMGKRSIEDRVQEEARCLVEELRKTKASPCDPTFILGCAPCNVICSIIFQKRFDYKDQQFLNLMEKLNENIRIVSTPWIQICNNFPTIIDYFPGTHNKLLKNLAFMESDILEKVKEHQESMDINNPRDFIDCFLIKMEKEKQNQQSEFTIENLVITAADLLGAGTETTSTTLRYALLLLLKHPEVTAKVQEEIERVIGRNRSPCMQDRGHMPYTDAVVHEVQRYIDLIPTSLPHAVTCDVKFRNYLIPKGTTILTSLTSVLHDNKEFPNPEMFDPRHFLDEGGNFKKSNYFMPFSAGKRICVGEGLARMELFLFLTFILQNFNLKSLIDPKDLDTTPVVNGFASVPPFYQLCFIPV
T5 sequence (P10635 whole entry): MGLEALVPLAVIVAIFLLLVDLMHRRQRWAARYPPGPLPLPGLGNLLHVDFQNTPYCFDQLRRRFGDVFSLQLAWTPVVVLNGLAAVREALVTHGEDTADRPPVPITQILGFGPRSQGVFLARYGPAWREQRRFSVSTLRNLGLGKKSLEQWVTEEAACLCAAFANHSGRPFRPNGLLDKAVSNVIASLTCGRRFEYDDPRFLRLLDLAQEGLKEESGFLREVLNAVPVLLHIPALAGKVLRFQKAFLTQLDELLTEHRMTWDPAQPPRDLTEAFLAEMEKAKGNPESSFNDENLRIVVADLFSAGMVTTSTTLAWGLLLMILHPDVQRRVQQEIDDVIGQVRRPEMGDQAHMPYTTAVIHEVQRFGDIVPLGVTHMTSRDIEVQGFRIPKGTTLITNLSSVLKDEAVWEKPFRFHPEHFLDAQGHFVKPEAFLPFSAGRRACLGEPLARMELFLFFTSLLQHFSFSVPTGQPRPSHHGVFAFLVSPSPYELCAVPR

On to `C=C(F)c1cc(-n2nc3c(c2-n2ccn(-c4ccc5c(c4F)N(C)C(=O)C54CCOCC4)c2=O)[C@H](C)N(C(=O)c2cc4cc([C@H]5CCOC(C)(C)C5)ccc4n2[C@@]2(c4noc(=O)[nH]4)C[C@@H]2C)CC3)ccc1F` [Compound 54], for which, in data set [1] (mouse, po), the bioavailability was determined as 33.8% and the AUC(0-t) is 12100 ng·h/mL. On GLP-1R [2], this compound came in with an EC50 of less than 0.001 µM.
As for `Cc1cc(-n2nc3c(c2-n2ccn(-c4ccc5c(cnn5C)c4F)c2=O)[C@H](C)N(C(=O)c2cc4cc([C@H]5CCOC(C)(C)C5)ccc4n2[C@@]2(c4noc(=O)[nH]4)C[C@@H]2C)CC3)cc(C)c1F` [Orforglipron, reference compound], the bioavailability in data set [1] (male, C57, mouse, oral) was 7.93%; in [3] (male, plasma, oral) it was 1.93%. Moreover, the AUC(0-t) was determined as 3260 ng·h/mL in data set [1] (male, C57, mouse, po) and 584 ng·h/mL in data set [3] (male, po, plasma). Also, the IC50 on CYP1A2 (human liver microsomes, NADPH, read-out: IC50 (µM) CYP1A2) was greater than 30 µM; at CYP2C19 (human liver microsomes, NADPH, read-out: IC50 (µM) CYP2C19), greater than 30 µM; at CYP2C9 (human liver microsomes, NADPH, read-out: IC50 (µM) CYP2C9), 0.905 µM; at CYP2D6 (human liver microsomes, NADPH, read-out: IC50 (µM) CYP2D6) it was greater than 30 µM; on CYP3A4 (human liver microsomes, NADPH, read-out: IC50 (µM) CYP3A4), greater than 30 µM. Further, the “blood glucose inhibition rate” value on GLP-1R [4] is -9.8%.
For the compound `[2H]C([2H])([2H])N1C(=O)C2(CCOCC2)c2ccc(-n3ccn(-c4c5c(nn4-c4ccc(F)c(C(=C)F)c4)CCN(C(=O)c4cc6cc([C@H]7CCOC(C)(C)C7)ccc6n4[C@@]4(c6noc(=O)[nH]6)C[C@@H]4C)[C@H]5C)c3=O)c(F)c21` [Compound 55], in data set [1] (mouse, po), the bioavailability was 25.1% and the AUC(0-t) came out at 8670 ng·h/mL. For the same compound, the concentration giving a half-maximal response (EC50) on GLP-1R [2] was less than 0.001 µM.
As for `Cc1cc(-n2nc3c(c2-n2ccn(-c4ccc5c(c4)N(C)C(=O)C54CCOCC4)c2=O)[C@H](C)N(C(=O)c2cc4cc(C5CCOC(C)(C)C5)sc4n2C2(c4noc(=O)[nH]4)C[C@@H]2C)CC3)cc(C)c1F` (single isomer, unassigned) [Compound 9], the IC50 was greater than 30 µM against CYP1A2 (human, microsomes); greater than 30 µM against CYP2C19 (human, microsomes); 3.31 µM at CYP2C9 (human, microsomes); greater than 30 µM on CYP2D6 (human, microsomes); greater than 30 µM against CYP3A4 (human, microsomes). The compound further registered an EC50 at GLP-1R [2] of less than 0.001 µM.
Regarding `Cc1cc(-n2nc3c(c2-n2ccn(-c4ccc5c(c4)N(C)C(=O)C54CCOCC4)c2=O)[C@H](C)N(C(=O)c2cc4cc([C@H]5CCOC(C)(C)C5)ccc4n2[C@@]2(c4noc(=O)[nH]4)C[C@@H]2C)CC3)cc(C)c1F` [Compound 2], the bioavailability in [1] (mouse, po) came out at 70.3%; in data set [3] (in vivo, po), 32.6%. For the same compound, the AUC(0-t) in data set [1] (mouse, po) came to 23200 ng·h/mL; in data set [3] (po, plasma), 11600 ng·h/mL. This compound yielded an EC50 at GLP-1R [2] of less than 0.001 µM. At GLP-1R [4], the “blood glucose inhibition rate” value is on record as -25.5%.
With `Cc1cc(-n2nc3c(c2-n2ccn(-c4ccc5c(c4)N(C)C(=O)C54CCN(C(=O)C5(c6ccccn6)CC5)CC4)c2=O)[C@H](C)N(C(=O)c2cc4cc([C@H]5CCOC(C)(C)C5)ccc4n2[C@@]2(c4noc(=O)[nH]4)C[C@@H]2C)CC3)cc(C)c1F` [Compound 23], the EC50 at GLP-1R [2] was less than 0.001 µM.
With `Cc1cc(-n2nc3c(c2-n2ccn(-c4ccc5c(c4)N(C)C(=O)C54CCN(C(=O)C5C6COCC65)CC4)c2=O)[C@H](C)N(C(=O)c2cc4cc([C@H]5CCOC(C)(C)C5)ccc4n2[C@@]2(c4noc(=O)[nH]4)C[C@@H]2C)CC3)cc(C)c1F` (stereo partly drawn) [Compound 22], the EC50 on GLP-1R [2] was less than 0.001 µM.
Consider `[2H]C([2H])([2H])N1C(=O)C2(CCOCC2)c2ccc(-n3ccn(-c4c5c(nn4-c4cc(C)c(F)c(C)c4)CCN(C(=O)c4cc6cc([C@H]7CCOC(C)(C)C7)ccc6n4[C@@]4(c6noc(=O)[nH]6)C[C@@H]4C)[C@H]5C)c3=O)cc21` [Compound 3], for which the IC50 at CYP1A2 (human, microsomes) is greater than 30 µM; at CYP2C19 (human, microsomes), greater than 30 µM; at CYP2C9 (human, microsomes), greater than 30 µM; against CYP2D6 (human, microsomes), greater than 30 µM; on CYP3A4 (human, microsomes), greater than 30 µM. Also, the concentration for a half-maximal effect (EC50) on GLP-1R [2] is less than 0.001 µM. On GLP-1R [4], the “blood glucose inhibition rate” value is listed as -37.1%.
Consider `Cc1cc(-n2nc3c(c2-n2ccn(-c4ccc5c(c4)N(C)C(=O)C54CCN(S(=O)(=O)C5CC5)CC4)c2=O)[C@H](C)N(C(=O)c2cc4cc([C@H]5CCOC(C)(C)C5)ccc4n2[C@@]2(c4noc(=O)[nH]4)C[C@@H]2C)CC3)cc(C)c1F` [Compound 20], for which the EC50 on GLP-1R [2] was less than 0.001 µM.
At GLP-1R [2], `Cc1cc(-n2nc3c(c2-n2ccn(-c4ccc5c(c4F)N(C)C(=O)C54CCOCC4)c2=O)[C@H](C)N(C(=O)c2cc4cc([C@H]5CCOC(C)(C)C5)ccc4n2[C@@]2(c4noc(=O)[nH]4)C[C@@H]2C)CC3)cc(C)c1F` [Compound 7] registered an EC50 of less than 0.001 µM.
